The source of these data is a melting point compilation (Tetko et al.; mined from patent text by program, amines drawn as free bases though some values may be those of a salt).

In the case of `CNC(=O)Oc1ccc2c(c1)c1c(n2C)CC(CO)C1` (stereo not given), the melting point (commonly the temperature of the solid-liquid transition) fell in the range of 137 to 138 °C.
`COC(=O)C1=C(C)NC(C)=C(C(=O)OC)C1c1ccccc1-c1cccs1`: the melting point was 173 to 175 °C.
The same measure for `COC=C(C(=O)OC)c1ccc(OC(C)=O)cc1`: 69 to 70 °C; for `CCCCc1nnc2ccccc2c1Cc1ccc(-c2ccccc2C(=O)O)cc1`: 210 °C.
Compound `CCCCCCCCCCCCCCCCCCCCC(COC(C)=O)(COC(C)=O)NC(C)=O` showed a melting point of 93 to 94 °C.
The same measure for `CC1CCC(c2ccc(Cl)c(Cl)c2)=NN1S(=O)(=O)c1ccc(I)cc1` (stereo not given): 194 to 196 °C; for `Cc1c(Cl)ccnc1C(=O)NCCNC(=O)OC(C)(C)C`: 134 to 135 °C.
`CCCCOCCOc1ccc(-c2ccc3c(c2)C=C(C(=O)Nc2ccc(CN(C)C4CCOCC4)cc2)CCS3(=O)=O)cc1` came in with a melting point of 194 to 196 °C.
The same measure for `COC(=O)c1cccc(OS(N)(=O)=O)c1`: 145 to 146 °C; for `CC[C@H](C)[C@H](NC(=O)O[C@@H](CC(C)C)C(=O)O)C(=O)NC(C)C`: 179 to 180 °C.
In the case of `O=Cc1ccc(-c2ccc(C=O)s2)s1`, the melting point fell in the range of 213 to 214 °C.
The same measure for `CCC1(CC)C(=O)N(c2ccc(C#N)c(C(F)(F)F)c2)C(=S)N1C`: 126 to 127 °C.
The result for `OCc1c(Br)c(Br)c(CO)c(Br)c1Br` reads 248 °C; that for `Cc1ccnc2c1N(O)C(=O)c1cccnc1N2C1CC1`, 239 to 241 °C; that for `CCCc1c(OCc2ccc(C=CC(=O)O)cc2)ccc(C(C)=O)c1O`, 203 to 204 °C.
The result for `CC(C)(C)OC(=O)N[C@@H](Cc1cc(F)cc(F)c1)C(=O)CCl` reads 139 °C.
Compound `BrC(c1ccccc1)c1ccc2ccccc2c1` (stereo not given) yielded a melting point of 89 to 90 °C.
The same measure for `Cn1c(=O)c2c(ncn2CC(N)=NO)n(C)c1=O`: 224 °C; for `CC(C)c1ccc(C(=O)C(C)c2ccccc2)c(C(C)C)c1OS(N)(=O)=O` (stereo not given): 142 to 144 °C; for `O=C(c1ccc(F)cc1)C1CCN(CCCc2nc3ccccc3c(=O)[nH]2)CC1`: 184 °C.
The same measure for `O=S(=O)(Nc1ccc(-c2nn(S(=O)(=O)c3ccccc3)c3c2Cc2ccccc2-3)cc1)c1ccccc1`: 251 to 252 °C.
The same measure for `CN(C)CCNS(=O)(=O)c1cccc(NC(=O)c2cnn3c(C(F)(F)F)cc(-c4ccc(C(F)(F)F)cc4)nc23)c1`: 224 °C; for `COc1ccc(NN=C(Sc2ccc(OC)c(OC)c2)C(C)=O)cc1`: 138 to 141 °C; for `O=C(O)c1cn(-c2ccc(F)cc2)c2c(F)c(N3CC4=C(CNC4)C3)c(F)cc2c1=O`: 195 to 198 °C.
For the compound `CC(C)NC(=O)c1nc(-c2ccccc2)c(-c2ccc(=O)n(C(C)C)n2)s1`, the melting point lay in the range of 131 to 132 °C.
The result for `C#CC1N(C(=O)Oc2ccccc2)c2cc(OC(=O)C(C)(C)C)ccc2C23OC12CCCC3=O` (stereo not given) reads 164 to 166 °C; that for `O=C(Nc1ccccc1C(c1ccc(O)cc1)c1ccc(O)cc1)c1ccc([N+](=O)[O-])cc1`, 258 to 259 °C.
The same measure for `Cc1cccc(NC(=O)c2ccn3c2CSC3c2cccnc2)n1` (stereo not given): 162 °C.
The compound `COCCO[C@@H]1c2ccn3c(C)c(C)nc3c2N[C@H](c2ccccc2)[C@H]1OC(=O)CCCCBr` had a melting point of 98.6 °C.
The result for `CC(=O)SCC(CC(C)C)C(=O)NCCCCCCCC(=O)N[C@@H](CCCNC(=N)N)C(=O)O` (stereo not given in full) reads 85 to 102 °C.
In the case of `CCOC(=O)c1cn(C(C)CCl)c2cc(Cl)c(F)cc2c1=O` (stereo not given), the melting point fell in the range of 151 to 153 °C.
The same measure for `COc1ccc(N)c(-c2cc3ccccc3[nH]2)c1`: 97 to 99 °C; for `Cc1csc(C(C)(O)c2nc(C)cs2)n1`: 82 to 84 °C.
The result for `CCOC(=O)Nc1cc(F)cc(CCCCC(=O)O)c1` reads 136 to 137 °C; that for `CNc1cc(O)cc(O)c1`, 130 °C.
The same measure for `O=C(O)CCCNc1ccccc1CNC(=O)C1Cc2ccccc2N1S(=O)(=O)c1ccc(-c2cccc(C(F)(F)F)c2)cc1` (stereo not given): 77 to 81 °C.
`CCOP(=O)(NC(=O)c1[nH]c2cc(OC)c(OC)cc2c1-c1ccc(OC)c(OC)c1)OCC` showed a melting point of 217 to 219 °C.
Consider `Cc1cccc(-c2nnnn2C)c1S(N)(=O)=O`, for which the melting point was 140 to 161 °C.
The same measure for `CCn1c(C)nc2cc(C(=O)O)ccc21`: over 250 °C.
The result for `CC(=O)OCCOCCN1CCC(CNC(=O)[C@@H]2CCCN2S(=O)(=O)c2ccc(Cl)c(COc3cccc4c(-n5cncn5)cc(C)nc34)c2Cl)CC1` reads 86 °C; that for `O=C(O)c1cc2c(-c3cccs3)nccc2[nH]c1=O`, 278 °C; that for `CC(C)C(O)(Cn1cncn1)c1ccc(C#CI)cc1` (stereo not given), 122 °C.
For the compound `CCS(=O)(=O)c1cc(C(=O)NCC2CCCN2CC2=CCCC2)c(OC)cc1N` (stereo not given), the melting point was in the range of 125 to 126 °C.
In the case of `C[C@]1(CN2CCC(NC(=O)OCc3ccc(C(F)(F)F)cc3)CC2)Cn2cc([N+](=O)[O-])nc2O1`, the melting point was 141 to 144 °C.
The result for `CC(C)(C)c1cc(SC2CC(=O)N(C3CCCCC3)C2=O)cc(C(C)(C)C)c1O` (stereo not given) reads 94 to 98 °C.
The result for `CC1(C)OCC(=CCn2cnc3c(Cl)nc(N)nc32)CO1` reads 157 to 159 °C; that for `CN(CCNC(=C[N+](=O)[O-])SCc1ccccc1)Cc1ccc(Cl)nc1`, 119 to 123 °C.
Compound `NC(=O)c1ncoc1-c1cccc(O)c1` returned a melting point of 202 to 204 °C.
`Cn1cc(C2=C(c3c4n(c5ccccc35)CCCC(CO)C4)C(=O)NC2=O)c2ccccc21` (stereo not given): the melting point was in the range of 268 to 270 °C.
The same measure for `CCCCc1ccc(CCCCSCc2cccc(/C=C/c3cccc(NC(=O)CC(CC)(CC)C(=O)O)c3)n2)cc1`: 150 to 151 °C.
The same measure for `COC[C@H]1CN(c2ccc3oc(-c4ccccc4)cc3c2)C(=O)O1`: 178 to 179 °C; for `Cc1nc2cc(C34CC5CC(CC(C5)C3)C4)cc(-c3cccc(C=C4SC(=S)NC4=O)c3)c2o1`: 310 °C.
`O=[N+]([O-])c1ccc2snc(-c3ccccc3)c2c1` returned a melting point of 130 °C.
The same measure for `CCOC1CC2(C)C(CCC3C2C(=O)CC2(C)C3CCC23OCCO3)CC1O` (stereo not given): 142 to 145 °C; for `CCS(=O)(=O)c1ccc(F)c(C#Cc2cc(Cl)ccc2OCC(=O)O)c1`: 165 to 169 °C; for `O=C(Nc1cnc(-c2ccccc2)nc1Cl)OCc1ccccc1`: 120 to 121 °C.
The same measure for `CCCN1C(=O)N2C[C@@H](Cc3ccccc3)N=C2c2c1nc(C=O)n2Cc1ccccc1`: 184 to 185 °C.
As for `CC(=O)OCCc1c(C2=CCC(c3ccccc3)(N(C)C)CC2)[nH]c2ccccc12` (stereo not given), the melting point lay in the range of 146 to 148 °C.
The compound `COc1ccc(OC)c(C=CCN2CCc3nc(N)sc3CC2)c1` displayed a melting point of 112 to 115 °C.
The result for `O=C(Cc1ccccc1[N+](=O)[O-])c1c(O)c2cccnc2n(-c2ccccc2)c1=O` reads 194 to 195 °C.
The compound `C[C@@H]1CN(C(=O)[C@@](C)(O)C(F)(F)F)[C@@H](C)CN1S(=O)(=O)c1ccc(C#N)cc1` showed a melting point of 186 to 187 °C.
The same measure for `O=Cc1cc(OCc2ccccc2)ccc1O`: 94 to 96 °C; for `CC(C)(C)OC(=O)COc1ccc(NC(=O)NC(=O)c2ccc(C(N)=S)cc2)cc1`: 248 °C.
The same measure for `N#CCCN(CCC#N)CC(=O)O`: 73 °C; for `CC(C)CNc1nc2cc(Cl)c(Cl)cc2n1[C@H]1O[C@@H](CO)[C@H](O)[C@@H]1O`: 136 °C.
As to `CCOC(=O)COC(=O)c1c(Cl)cccc1Cl`, the melting point was in the range of 50 to 51 °C.
The result for `COc1ccc2c(c1)CCCC2N(CC(=O)O)C(=O)C(C)CSC(C)=O` (stereo not given) reads 158 to 161 °C.
`O=C(Nc1ccc(N2CC3CCC3C2)nc1)c1cc2cc(C(F)(F)F)cnc2n1Cc1cccc(F)c1` (stereo not given) returned a melting point of 172 to 174 °C.
As for `CN(C(=O)Nc1ccccc1CCc1cc(C(C)(C)C)c(O)c(C(C)(C)C)c1)C1CCN(Cc2ccc(F)cc2)CC1`, the melting point is 177 to 178 °C.
For `CCC12CCC3=C(CCc4cc(OC)ccc43)C1=CCC2=O` (stereo not given), the melting point lay in the range of 77 to 80 °C.
The result for `CCCCCn1c(C#N)ccc1-c1ccc2c(c1)C(C)(C)OC(=O)N2` reads 128 to 131 °C.
The same measure for `O=C(Nc1ccc(F)cc1F)Nc1cnc2cnccc2c1-c1ccccc1Cl`: 213 to 216 °C; for `COC(=O)/C(=C/C=C/c1cc2ccccc2n1C)OC`: 93 to 94 °C.
The result for `O=C1c2ccccc2C(=O)N1CC(=O)N1c2ccccc2N(Cc2ccccn2)C(=O)[C@H]2CCC[C@H]21` (relative stereo) reads 227 to 229 °C; that for `Cc1cc(OCC(=O)Nc2cccc(C(=O)O)c2)ccc1C(C)C`, 188 to 189 °C; that for `Cc1[nH]c2ccc(C(=O)c3ccccc3)cc2c1C=O`, 227 to 230 °C.
`FC(F)Oc1ccc2c(Cc3c(Cl)cncc3Cl)nnc(N3CCOCC3)c2c1` gave a melting point of 129 to 131 °C.
The result for `NC(=O)c1c(C(=O)O)cnn1-c1cccc(Cl)c1` reads 223 to 225 °C; that for `Clc1ccc2c(c1)CN1C(=Nc3cccnc3)SC[C@@H]1C2`, 125 °C.
The same measure for `Cc1ccc(Oc2cc(-c3ccc(Br)cc3)oc2-c2ccc(Br)cc2)cc1`: 92 to 93 °C.
Compound `O=[N+]([O-])c1cc([N+](=O)[O-])c(Nc2nc(Cl)ccc2C(F)(F)F)c(C(F)(F)F)c1` showed a melting point of 129 to 131 °C.
The same measure for `Nc1ncnc2c1c(-c1ccc(Oc3ccccc3O)cc1)cn2C1CCCC1`: 107 to 109 °C; for `CCOC(=O)c1n[nH]c2c(=O)[nH]c3cc(Cl)ccc3c(=O)c12`: 290 °C; for `CCN1c2ncc(CCc3cccc(N)c3)cc2C(=O)N(C)c2ccc(Cl)nc21`: 121 to 123 °C.
The same measure for `CC(C)(C)[Si](C)(C)N1C(=O)CC1SC(c1ccccc1)(c1ccccc1)c1ccccc1` (stereo not given): 113 to 114 °C.
